Measured values taken from patent US12202835B2, “Substituted aromatic ring-linked dioxinoquinazolines and dioxinoquinolines as kinase inhibitors” (BEIJING SCITECH-MQ PHARMACEUTICALS LIMITED, priority 2018, dated 2025).

Columns and labels:
[1] = tested on: Ba/F3 LMNA-NTRK1-G595R cells; test: Assay for inhibiting the proliferation of Ba/F3 LMNA-NTRK1-G595R cells (CCK-8); assay type: cell-based; conditions: Mus musculus, BaF3
Outline: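 Cells seeded in 96-well plates overnight, then exposed 72 h to 9 three-fold dilutions of compound (0.25% DMSO final). Viability by CCK-8 (1-2 h at 37° C., OD 450 nm), survival normalized to untreated and cell-free blanks; IC50 by curve fitting.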

[2] = molecular target: c-MET kinase (Homo sapiens (Human), UniProt P08581); test: Assay of small molecular compounds for inhibiting the activity of c-MET kinase (LANCE TR-FRET); assay type: biochemical; conditions: read-out: CMET IC50
Sequence of c-MET kinase (P08581 25-1390): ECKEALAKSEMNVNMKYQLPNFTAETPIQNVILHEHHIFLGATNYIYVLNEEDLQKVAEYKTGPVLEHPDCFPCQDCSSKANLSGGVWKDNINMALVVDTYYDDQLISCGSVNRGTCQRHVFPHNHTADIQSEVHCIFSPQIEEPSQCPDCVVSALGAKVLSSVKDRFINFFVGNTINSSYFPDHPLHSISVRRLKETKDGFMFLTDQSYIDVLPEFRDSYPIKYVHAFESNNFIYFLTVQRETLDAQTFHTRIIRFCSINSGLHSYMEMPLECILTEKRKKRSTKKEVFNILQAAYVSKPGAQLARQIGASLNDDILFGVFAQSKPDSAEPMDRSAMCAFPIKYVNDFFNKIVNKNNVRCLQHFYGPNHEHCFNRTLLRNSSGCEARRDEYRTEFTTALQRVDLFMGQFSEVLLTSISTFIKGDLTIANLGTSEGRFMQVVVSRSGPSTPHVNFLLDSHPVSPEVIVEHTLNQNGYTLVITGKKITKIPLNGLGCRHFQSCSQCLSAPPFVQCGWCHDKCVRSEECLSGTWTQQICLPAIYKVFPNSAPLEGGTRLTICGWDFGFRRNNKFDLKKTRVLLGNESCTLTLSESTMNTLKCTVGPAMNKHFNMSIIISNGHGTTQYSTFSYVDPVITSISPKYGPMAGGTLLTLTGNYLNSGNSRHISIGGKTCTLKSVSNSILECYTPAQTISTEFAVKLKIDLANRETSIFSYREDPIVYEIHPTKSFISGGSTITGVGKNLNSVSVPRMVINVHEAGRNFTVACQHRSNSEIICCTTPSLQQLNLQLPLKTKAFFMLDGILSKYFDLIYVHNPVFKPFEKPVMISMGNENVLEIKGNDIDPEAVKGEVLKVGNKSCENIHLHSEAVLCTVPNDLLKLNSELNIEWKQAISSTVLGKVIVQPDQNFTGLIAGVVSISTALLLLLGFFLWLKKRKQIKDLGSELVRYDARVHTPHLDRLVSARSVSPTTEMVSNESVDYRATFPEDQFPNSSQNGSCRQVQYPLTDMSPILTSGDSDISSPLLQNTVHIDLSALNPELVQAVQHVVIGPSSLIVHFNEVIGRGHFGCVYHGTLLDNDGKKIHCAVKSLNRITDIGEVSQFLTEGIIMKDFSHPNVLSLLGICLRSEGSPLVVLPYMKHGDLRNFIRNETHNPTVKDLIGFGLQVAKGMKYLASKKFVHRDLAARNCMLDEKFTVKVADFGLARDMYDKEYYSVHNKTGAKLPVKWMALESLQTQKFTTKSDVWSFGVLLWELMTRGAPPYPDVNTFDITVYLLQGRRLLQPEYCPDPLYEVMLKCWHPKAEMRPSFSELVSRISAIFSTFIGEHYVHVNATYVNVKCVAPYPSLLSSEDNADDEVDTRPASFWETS
Outline: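 LANCE TR-FRET assay with c-MET at 1 nM final after a 5 min room-temperature preincubation with compound (11-point, 3-fold series, 2500–0.042 nM final, 4% DMSO). ULight-JAK-1 (Tyr1023) peptide (100 nM final) and ATP (10 μM final) reacted 60 min in the dark. Inhibition was taken relative to controls, then IC50 fitted.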

IC50 [1]	IC50 [2]	SMILES
50 to 200 nM	≤ 50 nM	CC(C)n1cc(C(=O)Nc2ccc(Oc3ccnc4cc(OCCO)c5c(c34)OCCO5)c(F)c2)c(=O)n(-c2ccc(F)cc2)c1=O [Example 78, N-(3-fluoro-4-((5-(2-hydroxyethoxy)-2,3-dihydro-[1,4]dioxino[2,3-f]quinolin-10-yl)oxy)phenyl)-3-(4-fluorophenyl)-1-isopropyl-2,4-dioxo-1,2,3,4-tetrahydropyrimidine-5-carboxamide]
50 to 200 nM	≤ 50 nM	CC(C)n1cc(C(=O)Nc2ccc(Oc3ccnc4cc(OCCCO)c5c(c34)OCCO5)c(F)c2)c(=O)n(-c2ccc(F)cc2)c1=O [Example 79, N-(3-fluoro-4-((5-(3-hydroxypropoxy)-2,3-dihydro-[1,4]dioxino[2,3-f]quinolin-10-yl)oxy)phenyl)-3-(4-fluorophenyl)-1-isopropyl-2,4-dioxo-1,2,3,4-tetrahydropyrimidine-5-carboxamide]

The next lines start with the molecule.

SMILES	IC50 [1]	IC50 [2]
CC(=O)N1CCN(CCCOc2cc3nccc(Oc4ccc(NC(=O)c5cn(C(C)C)c(=O)n(-c6ccc(F)cc6)c5=O)cc4F)c3c3c2OCCO3)CC1 [Example 75, N-(3-fluoro-4-((5-(3-(4-acetylpiperazin-1-yl)propoxy)-2,3-dihydro-[1,4]dioxino[2,3-f]quinolin-10-yl)oxy)phenyl)-3-(4-fluorophenyl)-1-isopropyl-2,4-dioxo-1,2,3,4-tetrahydropyrimidine-5-carboxamide]	200 to 1000 nM	≤ 50 nM
CC(C)n1cc(C(=O)Nc2ccc(Oc3ccnc4cc(OCCCN5CCCC5)c5c(c34)OCCO5)c(F)c2)c(=O)n(-c2ccc(F)cc2)c1=O [Example 77, N-(3-fluoro-4-((5-(3-(pyrrolidin-1-yl)propoxy)-2,3-dihydro-[1,4]dioxino[2,3-f]quinolin-10-yl)oxy)phenyl)-3-(4-fluorophenyl)-1-isopropyl-2,4-dioxo-1,2,3,4-tetrahydropyrimidine-5-carboxamide]	200 to 1000 nM	≤ 50 nM
Cn1cc(C(=O)Nc2ccc(Oc3ccnc4cc(OC5CCOC5)c5c(c34)OCCO5)c(F)c2)c(=O)n(-c2ccc(F)cc2)c1=O (stereo not shown) [Example 90, N-(3-fluoro-4-((5-((tetrahydrofuran-3-yl)oxy)-2,3-dihydro-[1,4]dioxino[2,3-f]quinolin-10-yl)oxy)phenyl)-3-(4-fluorophenyl)-1-methyl-2,4-dioxo-1,2,3,4-tetrahydropyrimidine-5-carboxamide]	50 to 200 nM	≤ 50 nM
